Some test systems named below: HCT-15; HOP-92; NCI-H522; OVCAR-3; DMS-114; LXFL 529; HOP-62; SF-539; U-251; SNB-75; SNB-19; CAKI-1; Malme-3M; SK-OV-3; CCRF-CEM; LOX IMVI; SW-620.
Common to all, as to test: DTP human tumour cell line panel, 48 h

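Cultured in 96-well plates, cells were exposed to test compound for 48 hours across five concentrations. At the GI50, growth is halved.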 Calls of active or inactive are those of the source. Rule as the data show it: active = GI50 up to about 1.1 µM and inactive = higher. A value given as a limit tells only on which side of the number the result lay.

Take `CCc1cccc(=O)c([O-])c1.CCc1cccc(=O)c([O-])c1.[Bi+3].[Cl-]`: the GI50 (in general, the concentration at which growth is held to half of that of the control) in the assay with HCT-15 was 3.66 µM; with HOP-92, 12.9 µM (inactive); in the assay on NCI-H522, 1.79 µM (inactive); in the assay on OVCAR-3 it was 5.92 µM (inactive); in the assay with DMS-114, 3.01 µM (inactive); in the assay on LXFL 529 it was 1.71 µM (inactive). Besides, the GI50 in the assay with HOP-62 was 11.6 µM (inactive); in the assay with SF-539 it was 9.84 µM (inactive); in the assay on U-251 it was 6.46 µM (inactive); with SNB-75, 17.6 µM (inactive); in the assay on SNB-19 it was 11 µM (inactive); in the assay on CAKI-1 it was 2.43 µM (inactive). In addition, the GI50 in the assay with Malme-3M is 1.79 µM (inactive); in the assay with SK-OV-3 it was 21.4 µM (inactive); with CCRF-CEM, 1.91 µM (inactive); with LOX IMVI it was 7.53 µM (inactive); in the assay on SW-620, 3.23 µM (inactive).

On to `C=CCN(CC=C)CC(C(C)=O)C(c1ccccc1)c1c(O)c2ccccc2oc1=O` (stereo not drawn), for which the GI50 is over 100 µM in the assay on HCT-15; > 100 µM (inactive) in the assay with HOP-92; 82.4 µM (inactive) in the assay with NCI-H522; > 100 µM (inactive) with DMS-114; > 100 µM (inactive) in the assay with LXFL 529; > 100 µM (inactive) in the assay on HOP-62. Moreover, the GI50 in the assay with SF-539 was > 100 µM (inactive); with U-251, > 100 µM (inactive); in the assay on SNB-75, 39.6 µM (inactive); in the assay on SNB-19 it was 15.6 µM (inactive); in the assay with CAKI-1 it was > 100 µM (inactive); in the assay with Malme-3M, > 100 µM (inactive). The GI50 in the assay on SK-OV-3, in the assay with CCRF-CEM, with LOX IMVI and with SW-620 was > 100 µM (inactive) in each case.

Take `CCOc1ccccc1NC(=O)CC1SC(Nc2ccc([N+](=O)[O-])cc2)=NC1=O` (stereo not drawn): the GI50 in the assay on HOP-92 is 10.2 µM (inactive); in the assay with OVCAR-3 it was 14.5 µM (inactive); in the assay on DMS-114, 13.1 µM (inactive); in the assay with LXFL 529, 17.7 µM (inactive); in the assay on HOP-62, 18.5 µM (inactive); in the assay on U-251, 14.3 µM (inactive). Besides, the GI50 with SNB-75 was 23.2 µM (inactive); with SNB-19, 29.3 µM (inactive); with Malme-3M, 22.5 µM (inactive); with CCRF-CEM, 17.2 µM (inactive); in the assay on LOX IMVI it was 18.5 µM (inactive); in the assay on SW-620, 23.1 µM (inactive).

In the case of `CCOc1ccccc1NC(=O)C1=C(C)NC(C)=C(C(=O)Nc2ccccc2OCC)C1c1ccc2c(c1)OCO2`, the GI50 is 7.36 µM (inactive) with HOP-92; 9.89 µM (inactive) with NCI-H522; 17 µM (inactive) in the assay with OVCAR-3; 16.9 µM (inactive) with DMS-114; 17.9 µM (inactive) in the assay on LXFL 529; 37.4 µM (inactive) in the assay on HOP-62. Also, the GI50 in the assay on SF-539 was 25.5 µM (inactive); in the assay with U-251, 47.5 µM (inactive); with SNB-75, 3.53 µM (inactive); in the assay on SNB-19 it was 95.9 µM (inactive); in the assay on CAKI-1, 21.5 µM (inactive); with Malme-3M, 26.2 µM (inactive). In addition, the GI50 is 18 µM (inactive) in the assay with SK-OV-3, 24.2 µM (inactive) with CCRF-CEM, 34 µM (inactive) with LOX IMVI and 38.4 µM (inactive) in the assay with SW-620.

As for `COC(=O)N1C=CC2=C(C)C3Nc4ccccc4C3C(C)=C2C1` (stereo not drawn), the GI50 is 1.12 µM in the assay with HCT-15; 2.09 µM (inactive) in the assay with HOP-92; 1.49 µM (inactive) in the assay with NCI-H522; 0.923 µM (active) in the assay on OVCAR-3; 23 µM (inactive) in the assay with DMS-114; 0.953 µM (active) in the assay on LXFL 529. Moreover, the GI50 in the assay with HOP-62 is 1.73 µM (inactive); with SF-539, 4.2 µM (inactive); in the assay on U-251 it was 3.1 µM (inactive); with SNB-75, 2.24 µM (inactive); with SNB-19, 2.97 µM (inactive); in the assay on CAKI-1 it was 5.35 µM (inactive). Moreover, the GI50 in the assay with Malme-3M is 3.03 µM (inactive); in the assay with SK-OV-3, 1.86 µM (inactive); in the assay with CCRF-CEM, 0.726 µM (active); in the assay on LOX IMVI it was 2.23 µM (inactive); in the assay on SW-620 it was 1.01 µM (active).

In the case of `CC1(C)C(=O)N(CCCCCCN2C(=O)C(C)(C)c3ccccc32)c2ccccc21`, the concentration for 50% growth inhibition (GI50) was 34.3 µM in the assay on HCT-15; 42.8 µM (inactive) in the assay with HOP-92; 28 µM (inactive) in the assay on OVCAR-3; 21.6 µM (inactive) in the assay with DMS-114; 39.1 µM (inactive) in the assay on LXFL 529; 80.7 µM (inactive) in the assay on HOP-62. Moreover, the GI50 is > 100 µM (inactive) with SF-539; 36.6 µM (inactive) with U-251; 39.1 µM (inactive) in the assay on SNB-75; 68.5 µM (inactive) in the assay with SNB-19; 62.4 µM (inactive) with CAKI-1; 25.9 µM (inactive) in the assay with Malme-3M. Also, the GI50 in the assay on SK-OV-3 was > 100 µM (inactive); in the assay on CCRF-CEM it was 22.4 µM (inactive); in the assay with LOX IMVI, 22 µM (inactive); in the assay on SW-620 it was 14.7 µM (inactive).

For `CCOC(=O)C(=O)Nc1ccccc1C(C)C`, the GI50 with HCT-15 was over 100 µM; in the assay with HOP-92, > 100 µM (inactive); in the assay with NCI-H522 it was > 100 µM (inactive); in the assay on OVCAR-3 it was > 100 µM (inactive); in the assay with DMS-114, > 100 µM (inactive); with LXFL 529 it was > 100 µM (inactive). The GI50 in the assay on HOP-62, in the assay with SF-539, with U-251, in the assay on SNB-75, with SNB-19 and in the assay with CAKI-1 was > 100 µM (inactive) in each case. The GI50 in the assay with Malme-3M, with SK-OV-3, in the assay with CCRF-CEM and with SW-620 was > 100 µM (inactive) throughout.

For `CC1=CP(=O)(OC(C)C)CC(C)=C1Cl` (stereo not drawn), the GI50 was > 100 µM (inactive) with HOP-92; 52.6 µM (inactive) in the assay on NCI-H522; > 100 µM (inactive) in the assay with OVCAR-3; > 100 µM (inactive) with DMS-114; > 100 µM (inactive) in the assay on LXFL 529; > 100 µM (inactive) with HOP-62. Also, the GI50 in the assay with SF-539 was 95.1 µM (inactive); with U-251 it was > 100 µM (inactive); in the assay with SNB-75, > 100 µM (inactive); with SNB-19 it was > 100 µM (inactive); in the assay on CAKI-1, > 100 µM (inactive); with Malme-3M it was > 100 µM (inactive). The GI50 was > 100 µM (inactive) in the assay with SK-OV-3, 34.4 µM (inactive) in the assay on CCRF-CEM, > 100 µM (inactive) with LOX IMVI and 70.5 µM (inactive) with SW-620.

As to `Brc1cc2c(cc1C1SCCS1)OCO2`, the GI50 in the assay with HCT-15 is over 100 µM; in the assay with NCI-H522 it was > 100 µM (inactive); in the assay on OVCAR-3 it was > 100 µM (inactive); in the assay with DMS-114 it was 37.3 µM (inactive); in the assay on LXFL 529, > 100 µM (inactive); with HOP-62, > 100 µM (inactive). The GI50 in the assay with SF-539, in the assay with U-251, in the assay with SNB-75, with SNB-19, in the assay on CAKI-1 and in the assay on Malme-3M was > 100 µM (inactive) in each case. For the same compound, the GI50 with SK-OV-3 is > 100 µM (inactive); in the assay with CCRF-CEM, > 100 µM (inactive); in the assay on LOX IMVI, 81.7 µM (inactive); with SW-620 it was > 100 µM (inactive).

As to `COc1ccc2cccc(C(=O)c3ccc(C)c4c3CCC4)c2c1`, the concentration for 50% growth inhibition (GI50) with HCT-15 is 19 µM; in the assay with NCI-H522, 22.5 µM (inactive); in the assay with OVCAR-3 it was 35.2 µM (inactive); in the assay with DMS-114 it was 32.4 µM (inactive); in the assay with LXFL 529, 29.6 µM (inactive); in the assay on HOP-62 it was 24.9 µM (inactive). The GI50 is 53.7 µM (inactive) in the assay with U-251; > 100 µM (inactive) in the assay with SNB-75; > 100 µM (inactive) in the assay on SNB-19; 31.7 µM (inactive) with CAKI-1; 29.2 µM (inactive) in the assay on Malme-3M; 64.3 µM (inactive) with SK-OV-3. Besides, the GI50 is 26.2 µM (inactive) in the assay with CCRF-CEM, 19.5 µM (inactive) in the assay with LOX IMVI and 41.8 µM (inactive) in the assay with SW-620.

For `O=C(N[C@H]1CC2(C=C(I)C(=O)C(I)=C2)OC1=O)OCc1ccccc1`, the GI50 in the assay with HCT-15 was 20.9 µM; in the assay with NCI-H522 it was 13.4 µM (inactive); in the assay with OVCAR-3, 17.3 µM (inactive); in the assay on DMS-114 it was 19.8 µM (inactive); with LXFL 529, 16.6 µM (inactive); in the assay on HOP-62, 22.6 µM (inactive). In addition, the GI50 is 17.7 µM (inactive) in the assay on SF-539; 17.3 µM (inactive) with U-251; 19.6 µM (inactive) with SNB-75; 21.8 µM (inactive) in the assay with SNB-19; 20.4 µM (inactive) in the assay with CAKI-1; 17.3 µM (inactive) with Malme-3M. For the same compound, the values for the GI50 with SK-OV-3, with CCRF-CEM and with LOX IMVI were 34.8 µM (inactive), 2.61 µM (inactive) and 16 µM (inactive), respectively.

Take `Cc1c(C(=O)O)oc2ccc([N+](=O)[O-])cc12`: the GI50 with HCT-15 was over 100 µM; with HOP-92, 72.4 µM (inactive); with NCI-H522, > 100 µM (inactive); with OVCAR-3, > 100 µM (inactive); with DMS-114, > 100 µM (inactive); in the assay on LXFL 529, > 100 µM (inactive). Moreover, the GI50 with HOP-62, in the assay with SF-539, in the assay on U-251, in the assay on SNB-19, with CAKI-1 and in the assay with Malme-3M was > 100 µM (inactive) throughout. The GI50 in the assay on SK-OV-3, with CCRF-CEM, in the assay on LOX IMVI and with SW-620 was > 100 µM (inactive) throughout.

Take `CCOC(=O)C1=C(C)NC(=S)NC1c1ccccc1` (stereo not drawn): the concentration for 50% growth inhibition (GI50) in the assay on HCT-15 is over 41.3 µM; with HOP-92, > 100 µM (inactive); in the assay on NCI-H522, > 63.8 µM (inactive); in the assay with OVCAR-3 it was > 100 µM (inactive); in the assay with DMS-114 it was > 39.9 µM (inactive); with LXFL 529 it was 76.4 µM (inactive). For the same compound, the GI50 in the assay with HOP-62 is > 100 µM (inactive); in the assay with SF-539, > 100 µM (inactive); in the assay with U-251 it was > 39.3 µM (inactive); with SNB-75, > 100 µM (inactive); in the assay on CAKI-1, > 20 µM (inactive); in the assay on Malme-3M it was > 100 µM (inactive). Besides, the GI50 with SK-OV-3 is > 100 µM (inactive); in the assay on CCRF-CEM it was > 45.1 µM (inactive); in the assay on LOX IMVI, > 63.7 µM (inactive).

For the origin of these results see ChEMBL document CHEMBL1201862, “PubChem BioAssay data set” (2004).
